Measured values as given in patent US5935987A, “Transdermal delivery of 3,4-diarylchromans” (priority 1996, dated 1999).
Several values for one entry are separate records, joined by “and”; a condition that tells them apart may be missing. Equal values may be shown once. Where a name gives a salt, the structure may show the parent alone. Read-outs that look alike come from different tables or passages of the source.

Legend:
[1] = racemate; cited from earlier work
[2] = background statement; cited from earlier work
[3] = background statement, cited from earlier work
[4] = Concentration of levormeloxifene fumarate in saturated donor solutions (HPLC); type: physicochemical; conditions: stirred 24 hours, room temperature; for solubility thermodynamic at 24 h: read-out: Conc. unmarked (donor phase saturated)
Procedure: The donor solutions were made of selected vehicles which were saturated with levormeloxifene fumarate, cf. Table 1. To prepare the donor solutions, levormeloxifene fumarate was added to the vehicles, and after stirring at room temperature for 24 hours, the donor solution was saturated with levormeloxifene fumarate and filtered through a Millipore filter 0.22 μm. Thereafter ^14 C-levormeloxifene was added to 1.00 ml of the donor solution to give a final concentration of ^14 C-levormeloxifene at 3 mg/ml (1,3 mCi/mi). Thereafter the donor solution was applied on the epidermal side of the skin, and the experiment was performed with occlusion. The concentrations of levormeloxifene fumarate in the donor solutions were determined previously by a HPLC method.

[5] = type: in vitro ADME, human
Procedure: The effect of selected formulations on levormeloxifene fumarate permeation through human skin in vitro is illustrated in the following way:
Franz glass diffusion cells were used (Franz, T. J.: Curr. Probl. Dermatol., 1978: 7; 58-68).
Experiments were performed on abdominal or breast skin obtained after surgery and kept at -20° C. for not more than ten months. After initial thawing the skin was squeezed between a metal and a glass plate, and after refreezing the skin was dermatomed to a thickness of 0.5 mm.
The human skin membrane was enclosed in the glass chambers with ground faces (diffusing area 0.64 cm^2). A clamp was used to keep the chambers together. […]
After the skin was allowed to equilibrate at 32° C. for one hour, the capacitance was measured with a Lutron DM 6023 Capacitance meter. […]
The donor solutions were made of selected vehicles which were saturated with levormeloxifene fumarate, cf. […] The concentrations of levormeloxifene fumarate in the donor solutions were determined previously by a HPLC method. […]
At appropriate intervals, samples were taken from the receptor phase and replaced by fresh receptor solution in order to keep sink-conditions. The amount of levormeloxifene fumarate in the receptor solution was determined using liquid scintillatory counting. […]
The mean value and the standard deviation were calculated of the flux J of the replicates. […]

## COc1ccc2c(c1)OC(C)(C)[C@@H](c1ccccc1)[C@@H]2c1ccc(OCCN2CCCC2)cc1 (relative stereo) [Centchroman]
[1]
  cholesterol lowering: potent cholesterol lowering pharmaceutical agent expressed by a significant decrease of the serum concentrations

## COc1ccc2c(c1)OC(C)(C)[C@@H](c1ccccc1)[C@@H]2c1ccc(OCCN2CCCC2)cc1 [hydrochloride salt]
[2]
  hygroscopicity: hygroscopic
[3]
  behaviour in aqueous suspension: forms a solid gel in aqueous suspension
  solubility in water: quite heavy soluble in water

## COc1ccc2c(c1)OC(C)(C)[C@@H](c1ccccc1)[C@@H]2c1ccc(OCCN2CCCC2)cc1 [levormeloxifene fumarate, (-)-3R,4R-trans-7-methoxy-2,2-dimethyl-3-phenyl-4-{4-[2-(pyrrolidin-1-yl)ethoxy]phenyl}chromane, hydrogen fumarate]
[4]; acetic acid 0.05m (b4), pH 4, vehicle B4 (acetic acid 0.05M, pH 4)
  solubility thermodynamic at 24 h: 325 µg/mL
[4]; b4 + 2% 2-pyrrolidon, vehicle B4 + 2% 2-pyrrolidon
  solubility thermodynamic at 24 h: 420 µg/mL
[4]; b4 + 20% ethanol, organic solvent or mixture, vehicle B4 + 20% ethanol
  solubility thermodynamic at 24 h: 1400 µg/mL
[4]; b4 + 30% ethanol, organic solvent or mixture, vehicle B4 + 30% ethanol
  solubility thermodynamic at 24 h: 3100 µg/mL
[4]; pg + 10% oleic acid, organic solvent or mixture, vehicle PG + 10% oleic acid
  solubility thermodynamic at 24 h: 116000 µg/mL
[4]; vehicle B4 (acetic acid 0.05M, pH 4), 1440 min
  Conc. unmarked (donor phase saturated): 320 µg/mL and 325 µg/mL
[5]
  Dosage per day: 0.56 mg
[5]; pH 4
  Flux ± S.D.: 0.495 ± 0.125 mg × cm^-2 × h^-1

## COc1ccc2c(c1)OC(C)(C)[C@@H](c1ccccc1)[C@@H]2c1ccc(OCCN2CCCC2)cc1 [levormeloxifene, (-)-3R,4R-trans-7-methoxy-2,2-dimethyl-3-phenyl-4-{4-[2-(pyrrolidin-1-yl)ethoxy]phenyl}chromane]
[3]; listed as free base
  solubility in water: very poor solubility in water
